Test results reported in patent US9556165B2 (priority 2012, dated 2017).
Converted amounts (≈) assume the structure as drawn.

What was measured:
Format in all cases: cell-based
C. freundii K21/3034 = experiment: MIC determination, broth microdilution (CLSI); conditions: Citrobacter freundii, K21/3034, strain 4
C. perfringens DSM756 = experiment: microbe, parasite or virus in culture; conditions: Clostridium perfringens, DSM756, read-out: strain 16 MIC, strain 16
[1] = tested on: P. aeruginosa 2297-con (AmpC derepressed); experiment: MIC determination, broth microdilution (CLSI); conditions: Pseudomonas aeruginosa, read-out: strain 8 MIC, strain 8
E. coli J62-TEM-3 = experiment: MIC determination, broth microdilution (CLSI); conditions: Escherichia coli, J62TEM3, read-out: strain 18 MIC, strain 18
S. aureus 133 = experiment: MIC determination, broth microdilution (CLSI); conditions: Staphylococcus aureus, 133, strain 11; read-out: strain 11 MIC
S. pneumoniae 113 = experiment: MIC determination, broth microdilution (CLSI); conditions: Streptococcus pneumoniae, 113, strain 14; read-out: strain 14 MIC
M. morganii 126/3048 = experiment: MIC determination, broth microdilution (CLSI); conditions: Morganella morganii, 126/3048, strain 5
A. baumannii ATCC15308 = experiment: MIC determination, broth microdilution (CLSI); conditions: Acinetobacter baumannii, ATCC15308, strain 9
M. catarrhalis ICB489 = experiment: MIC determination, broth microdilution (CLSI); conditions: Moraxella catarrhalis, ICB489, strain 12
E. coli ATCC25922 = experiment: MIC determination, broth microdilution (CLSI); conditions: Escherichia coli, ATCC25922, strain 1
H. influenzae ATCC 49247 = experiment: MIC determination, broth microdilution (CLSI); conditions: Haemophilus influenzae, ATCC49247, strain 13; read-out: strain 13 MIC
strain 19 = experiment: MIC determination, broth microdilution (CLSI)
E. cloacae 34654 = experiment: MIC determination, broth microdilution (CLSI); conditions: Enterobacter cloacae, 34654, strain 3
K. pneumoniae 60 = experiment: MIC determination, broth microdilution (CLSI); conditions: Klebsiella pneumoniae, 60, strain 2
strain 20 = experiment: MIC determination, broth microdilution (CLSI)
S. maltophilia ICB7569 = experiment: MIC determination, broth microdilution (CLSI); conditions: Stenotrophomonas maltophilia, ICB7569, strain 10
E. coli J62 = experiment: MIC determination, broth microdilution (CLSI); conditions: Escherichia coli, J62, strain 17; read-out: strain 17 MIC
strain 21 = experiment: MIC determination, broth microdilution (CLSI)
P. aeruginosa PAO1 = experiment: MIC determination, broth microdilution (CLSI); conditions: Pseudomonas aeruginosa, PAO1, strain 6
B. fragilis 6688 = experiment: MIC determination, broth microdilution (CLSI); conditions: Bacteroides fragilis, 6688, strain 15; read-out: strain 15 MIC
[2] = tested on: P. aeruginosa 2297 (AmpC wt); experiment: MIC determination, broth microdilution (CLSI); conditions: Pseudomonas aeruginosa, strain 7

SMILES	MIC (C. freundii K21/3034) [µg/mL]	MIC (C. perfringens DSM756) [µg/mL]	MIC [1] [µg/mL]	MIC (E. coli J62-TEM-3) [µg/mL]	MIC (S. aureus 133) [µg/mL]	MIC (S. pneumoniae 113) [µg/mL]	MIC (M. morganii 126/3048) [µg/mL]	MIC (A. baumannii ATCC15308) [µg/mL]	MIC (M. catarrhalis ICB489) [µg/mL]	MIC (E. coli ATCC25922) [µg/mL]	MIC (H. influenzae ATCC 49247) [µg/mL]	MIC (strain 19) [µg/mL]	MIC (E. cloacae 34654) [µg/mL]	MIC (K. pneumoniae 60) [µg/mL]	MIC (strain 20) [µg/mL]	MIC (S. maltophilia ICB7569) [µg/mL]	MIC (E. coli J62) [µg/mL]	MIC (strain 21) [µg/mL]	MIC (P. aeruginosa PAO1) [µg/mL]	MIC (B. fragilis 6688) [µg/mL]	also measured
CC1(C)[C@H](NC(=O)/C(=N\OCCOc2ccc(C3=NCCN3)cc2)c2csc(N)n2)C(=O)N1OS(=O)(=O)O [Example 25, (2Z)-2-(2-Amino-1,3-thiazol-4-yl)-2-({2-[4-(4,5-dihydro-1H-imidazol-2-yl)phenoxy]ethoxy}imino)-N-[(3S)-2,2-dimethyl-4-oxo-1-(sulfooxy)azetidin-3-yl]ethanamide]	0.125 (≈ 0.22 µM)	2 (≈ 3.52 µM)	4 (≈ 7.05 µM)	4 (≈ 7.05 µM)	≤ 0.063	4 (≈ 7.05 µM)	0.125 (≈ 0.22 µM)	2 (≈ 3.52 µM)	≤ 0.063	0.125 (≈ 0.22 µM)	≤ 0.063	0.125 (≈ 0.22 µM)	0.25 (≈ 0.44 µM)	0.25 (≈ 0.44 µM)	0.125 (≈ 0.22 µM)	8 (≈ 14.1 µM)	0.25 (≈ 0.44 µM)	0.125 (≈ 0.22 µM)	2 (≈ 3.52 µM)	2 (≈ 3.52 µM)	MIC [2]: 4 µg/mL (≈ 7.05 µM)
CC1(C)[C@H](NC(=O)/C(=N\OCCOc2cnc(C(=N)N)c(O)c2)c2csc(N)n2)C(=O)N1OS(=O)(=O)O [Example 33, (2Z)-2-(2-Amino-1,3-thiazol-4-yl)-2-({2-[(6-carbamimidoyl-5-hydroxypyridin-3-yl)oxy]ethoxy}imino)-N-[(3S)-2,2-dimethyl-4-oxo-1-(sulfooxy)azetidin-3-yl]ethanamide]	0.25 (≈ 0.448 µM)	2 (≈ 3.58 µM)	8 (≈ 14.3 µM)	32 (≈ 57.3 µM)	≤ 0.063	32 (≈ 57.3 µM)	0.25 (≈ 0.448 µM)	8 (≈ 14.3 µM)	0.125 (≈ 0.224 µM)	0.25 (≈ 0.448 µM)	≤ 0.063	0.25 (≈ 0.448 µM)	0.5 (≈ 0.895 µM)	0.5 (≈ 0.895 µM)	0.25 (≈ 0.448 µM)	16 (≈ 28.6 µM)	0.5 (≈ 0.895 µM)	0.5 (≈ 0.895 µM)	8 (≈ 14.3 µM)	4 (≈ 7.16 µM)	MIC [2]: 16 µg/mL (≈ 28.6 µM)
CC1(C)[C@H](NC(=O)/C(=N\OCCOc2ccc(C(=N)NCCNC=N)cc2)c2csc(N)n2)C(=O)N1OS(=O)(=O)O [Example 38]	0.125 (≈ 0.204 µM)	2 (≈ 3.27 µM)	4 (≈ 6.54 µM)	4 (≈ 6.54 µM)	≤ 0.063	2 (≈ 3.27 µM)	0.5 (≈ 0.817 µM)	0.25 (≈ 0.409 µM)	≤ 0.063	0.125 (≈ 0.204 µM)	≤ 0.063	0.125 (≈ 0.204 µM)	0.25 (≈ 0.409 µM)	0.25 (≈ 0.409 µM)	0.25 (≈ 0.409 µM)	32 (≈ 52.3 µM)	0.25 (≈ 0.409 µM)	0.25 (≈ 0.409 µM)	4 (≈ 6.54 µM)	4 (≈ 6.54 µM)	MIC [2]: 8 µg/mL (≈ 13.1 µM)
CC1(C)[C@H](NC(=O)/C(=N\OCCOc2ccc(C(=N)N[C@H]3CCNC3)cc2)c2csc(N)n2)C(=O)N1OS(=O)(=O)O [Example 39, (2Z)-2-(2-Amino-1,3-thiazol-4-yl)-N-[(3S)-2,2-dimethyl-4-oxo-1-(sulfooxy)azetidin-3-yl]-2-{[2-(4-{N-[(3S)-pyrrolidin-3-yl]carbamimidoyl}phenoxy)ethoxy]imino}ethanamide]	0.25 (≈ 0.409 µM)	8 (≈ 13.1 µM)	2 (≈ 3.28 µM)	4 (≈ 6.55 µM)	≤ 0.063	2 (≈ 3.28 µM)	0.5 (≈ 0.819 µM)	0.5 (≈ 0.819 µM)	0.25 (≈ 0.409 µM)	0.25 (≈ 0.409 µM)	0.25 (≈ 0.409 µM)	0.125 (≈ 0.205 µM)	0.5 (≈ 0.819 µM)	0.5 (≈ 0.819 µM)	0.25 (≈ 0.409 µM)	16 (≈ 26.2 µM)	0.25 (≈ 0.409 µM)	0.25 (≈ 0.409 µM)	2 (≈ 3.28 µM)	16 (≈ 26.2 µM)	MIC [2]: 4 µg/mL (≈ 6.55 µM)
